Results taken from patent US20080200555A1, “USE OF NOREPINEPHRINE REUPTAKE INHIBITORS FOR THE TREATMENT OF TIC DISORDERS” (priority 2001, published 2008).

Assay: Case report: atomoxetine treatment of a person with ADHD and tics (Example 1)
Assay type: in vivo, human
Excerpt: A person presented with ADHD and tics. […] At baseline, the tics included multiple motor and multiple vocal tics, some complex or in bouts. Their vocal tics were especially problematic and disruptive, causing difficulties for the child at school, in social situations, and when the family went out in public (for example, to a restaurant). The clinical global impression-severity score (CGI-S) is a seven-point scale (1=normal, 7=very severely ill) that summarizes a clinician's overall impression about how severe a patient's illness is compared to other patients the clinician has treated. Based on the parent's report, the retrospective CGI-S score for the child's tics at baseline was 5, markedly ill. The YGTSS is the Yale Global Tic Severity Scale and summarizes the number, severity and frequency of a patient's tics. The minimum score on the YGTSS is zero and the maximum is 50. Based on the parent's description the patient's baseline YGTSS was about 30.
After about 2 to 3 weeks of atomoxetine treatment, the patient's parent reported a single head tic and a few eye blinking tics in the previous week, and no vocal tics. The parent also reported that the patient's complex tics or compulsive behaviors (which had involved them playing with some doors with their feet in a somewhat stereotypical manner), had also stopped. […] The CGI-S score for the child's tics based on the interview with their parent was […], minimally ill. Based on the same interview, the YGTSS total score for the child was 8. The clinical global impression-improvement (CGI-I) score is a seven-point scale (1=very much improve, 7=very much worse) that summarizes a clinician's overall impression about how much a patient has improved with treatment as compared to where they were at baseline. The CGI-I score for the patient's tics was 1, very much improved.

[1] = after about 2 to 3 weeks of atomoxetine treatment

**Q.** For CNCC[C@@H](Oc1ccccc1C)c1ccccc1 [atomoxetine, (R)-(−)-N-methyl-3-(2-methylphenoxy)-3-phenylpropylamine], which “complex tics or compulsive behaviors (mother's report)” value [1] is on record?
**A.** stopped

**Q.** What about the “vocal tics in the previous week (mother's report)” value [1] of the same molecule?
**A.** no vocal tics

**Q.** And the “YGTSS (Yale Global Tic Severity Scale) total score” value (person with ADHD and tics, after about 2 to 3 weeks of atomoxetine treatment, scale 0 to 50, baseline about 30)?
**A.** 8

**Q.** What about the “clinical global impression-severity score (CGI-S) for the child's tics” value (person with ADHD and tics, after about 2 to 3 weeks of atomoxetine treatment, seven-point scale (1=normal, 7=very severely ill), baseline 5) of the same molecule?
**A.** 2a

**Q.** And the “change in tics after starting treatment” value (person with ADHD and tics, after starting on atomoxetine)?
**A.** dramatic drop

**Q.** What about the ADHD (person with ADHD and tics, on atomoxetine treatment) of the same molecule?
**A.** improved

**Q.** And the “clinical global impression-improvement (CGI-I) score for the patient's tics” value (person with ADHD and tics, seven-point scale (1=very much improve, 7=very much worse), compared to baseline)?
**A.** 1
